Counter-ions that a name gives are not always drawn.

In this experiment the target is Myeloperoxidase (MPO) (Homo sapiens, UniProt P05164). As to the kind of experiment: taurine chloramine chlorination assay. The class given is biochemical.
Sequence of Myeloperoxidase (MPO) (P05164 165-273): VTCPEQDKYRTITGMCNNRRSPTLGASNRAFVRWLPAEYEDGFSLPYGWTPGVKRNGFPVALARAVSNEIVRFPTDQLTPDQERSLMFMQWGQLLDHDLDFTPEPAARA
Sequence of Myeloperoxidase (MPO) (P05164 279-745): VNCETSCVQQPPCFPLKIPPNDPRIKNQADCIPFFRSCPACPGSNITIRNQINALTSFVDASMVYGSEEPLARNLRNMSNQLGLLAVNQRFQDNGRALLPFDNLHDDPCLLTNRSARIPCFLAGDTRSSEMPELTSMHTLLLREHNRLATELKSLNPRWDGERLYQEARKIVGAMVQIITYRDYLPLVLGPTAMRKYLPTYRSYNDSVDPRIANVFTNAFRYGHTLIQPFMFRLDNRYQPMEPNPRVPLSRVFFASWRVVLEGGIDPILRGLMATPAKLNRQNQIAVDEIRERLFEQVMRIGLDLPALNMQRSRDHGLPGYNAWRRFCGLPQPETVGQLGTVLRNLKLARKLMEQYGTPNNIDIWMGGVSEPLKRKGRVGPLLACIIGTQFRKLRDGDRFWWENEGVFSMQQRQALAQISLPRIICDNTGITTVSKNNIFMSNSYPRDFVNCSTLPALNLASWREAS

`O=S(=O)(O)CCS` [mesna, 2-mercaptoethanesulfonic acid sodium salt]: the IC50 (in general, the concentration that gives 50% inhibition) was ~5 µM.

Values taken from PMC6859649 (Free radical biology & medicine, 2017).
